Experiment: xn = mol fraction of the nth substance listed
Conditions: 101 kPa, Liquid

CC#N [acetonitrile] + O
Conditions | mass density, 298.15 K [kg/m3] | mass density, 303.15 K [kg/m3] | mass density, 308.15 K [kg/m3] | mass density, 313.15 K [kg/m3] | mass density, 318.15 K [kg/m3] | viscosity, 298.15 K [mPa·s] | viscosity, 303.15 K [mPa·s] | viscosity, 308.15 K [mPa·s] | viscosity, 313.15 K [mPa·s] | viscosity, 318.15 K [mPa·s]
x1 = 0.051 | 978.98 | 975.65 | 972.14 | 969.11 | 965.89 | 0.9849 | 0.8799 | 0.7964 | 0.7208 | 0.6522
x1 = 0.1169 | 954.73 | 951.24 | 947.08 | 943.32 | 939.05 | 0.9567 | 0.8628 | 0.7842 | 0.7155 | 0.6524
x1 = 0.1971 | 924.74 | 921.1 | 916.51 | 912.69 | 908.03 | 0.8743 | 0.7931 | 0.7218 | 0.6628 | 0.6069
x1 = 0.2728 | 900.14 | 896.29 | 891.33 | 887.31 | 882.39 | 0.7891 | 0.7152 | 0.6502 | 0.5951 | 0.5462
x1 = 0.3601 | 876.35 | 872.19 | 866.86 | 862.67 | 857.41 | 0.6953 | 0.6298 | 0.5737 | 0.5266 | 0.4853
x1 = 0.4417 | 857.17 | 852.79 | 846.98 | 842.61 | 837.06 | 0.6061 | 0.5574 | 0.5121 | 0.4744 | 0.4435
x1 = 0.5204 | 841.27 | 836.65 | 830.76 | 826.18 | 820.41 | 0.5387 | 0.4972 | 0.4606 | 0.4317 | 0.4089
x1 = 0.6012 | 826.9 | 822.15 | 816.07 | 811.38 | 805.44 | 0.4802 | 0.4473 | 0.4189 | 0.3959 | 0.3783
x1 = 0.6671 | 816.3 | 811.49 | 805.22 | 800.45 | 794.36 | 0.4415 | 0.4138 | 0.3902 | 0.3698 | 0.3556
x1 = 0.7398 | 805.64 | 800.78 | 794.39 | 789.71 | 783.69 | 0.4064 | 0.3831 | 0.3633 | 0.3471 | 0.3353
x1 = 0.8253 | 794.81 | 789.89 | 783.52 | 778.81 | 772.68 | 0.3722 | 0.3545 | 0.3386 | 0.3256 | 0.3159
x1 = 0.886 | 787.78 | 782.84 | 776.44 | 771.75 | 765.67 | 0.3561 | 0.3405 | 0.3259 | 0.3142 | 0.3039
x1 = 0.9389 | 782.44 | 777.52 | 771.07 | 766.36 | 760.29 | 0.3478 | 0.333 | 0.3173 | 0.3061 | 0.2963
x1 = 0.999 | – | – | – | – | – | 0.3418 | 0.3281 | 0.313 | 0.301 | 0.29
x1 = 1 | 776.69 | 771.89 | 765.46 | 760.86 | 754.76 | 0.3417 | 0.328 | 0.3129 | 0.3009 | 0.2899
